Measurements as given in patent US20260294915A1, “COMBINATION THERAPY COMPRISING A MAT2A INHIBITOR AND A TOPOISOMERASE INHIBITOR, A SPLICING INHIBITOR SULFONAMIDE, OR A KIF18 INHIBITOR” (IDEAYA BIOSCIENCES, INC., priority 2023, published 2026).
Like-named read-outs stand apart in the source and are kept apart here. Marks after values point to notes of the source that are not given here.

Experiments:
Format in all cases: cell-based
UMUC11 = test: 10-day proliferation (CTG), equimolar Compound A + SPLAM (Example 4); details: single agent or 1:1 combo; for IC50: read-out: gIC50; for IC80: read-out: gIC80; for IC90: read-out: gIC90
Method: (§1) A 10-day proliferation assay was performed in a panel of 5 MTAP-deficient and 2 wild type non-small cell lung and bladder cancer cell lines. Optimal cell seeding for all cell lines was determined by assessing the growth over a range of seeding densities in a 384-well format to identify conditions that permitted proliferation for 10 days. Cells were then plated at the optimal seeding density and treated with 20-point, two-fold dilution series of Compound A, the splicing inhibitor sulfonamide (SPLAM), or an equimolar combination of Compound A and the SPLAM. Combinations tested included Compound A in combination with four structurally different SPLAMs. Concentrations tested for Compound A and each SPLAM alone or in combination ranged from 0.04 nM to 20,000 nM. A plate of cells was harvested at the time of compound addition to quantify the number of cells at the start of the combination (T0). For cell quantification, the harvested cells were lysed with Promega CellTiter-Glo (CTG) reagent according to the manufacturer's protocol and the chemiluminescent signal was detected on a Synergy Neo plate reader. CTG estimates cell number through detection of cellular ATP levels. Cells were incubated with the drug combinations at 37° C. with 5% CO2 for 10 days. Cells were then lysed with CTG and the chemiluminescent signal was measured.
(§2) CTG values obtained after the 10-day treatment were background subtracted and expressed as a percent of the T0 value. Data were plotted against compound concentration and fit with a four-parameter equation to generate dose response curves for each single agent and the equimolar combination. Growth ICx (gICx) values ranging from gIC30 to gIC100 were interpolated from the fitted curves. Synergistic growth inhibition was assessed by determination of Combination Index (CI) values at these various points across the titration using the mutually non-exclusive equation [Chou, 1983; Chou, 1981] shown below where A equals the gICx value of Compound A, B equals the gICx value of the SPLAM, and A+B or B+A equals the gICx value of the equimolar combination. A Combination Index value less than 1.0 was considered synergistic.

NCI-H520 = test: as above; details: single agent or 1:1 combo; for IC50: Homo sapiens, read-out: gIC50; for IC80: read-out: gIC80; for IC90: read-out: gIC90
Method: as §1, §2

SW900 = test: 10-day proliferation (CTG), SPLAM titration + 1000 nM Compound A, Bliss (Example 5; Tables 12-19); design: key: GDI scale -100 to 100; 0 = cell number at T0; <0 cytotoxic; details: for GDI (growth death index), single agent Cmpd A: SW900, 1000 nM Compound A; for GDI: alone or + 1 uM Cmpd A
Method: Synergy was measured across the Indisulam titration with 1000 nM Compound A by Bliss Independence analysis. Bliss scores >10 are indicated by “*” and are considered synergistic. […] Synergy as reported using Bliss may be underrepresented within cytotoxic dose ranges. Growth death index values are shown for the combination titration and each single agent Compound A (Cmpd A) and Indisulam on a scale of −100 to 100 with the midpoint (0) being the number of cells at the beginning of the combination (T0). Scores less than 0 are indicated with “**” and are representative of a cytotoxic response. Bliss and GDI values are shown for five MTAP-deficient cell lines: NCI-1H838 (12A), SW900 (12B), RT112/84 (12C), UMUC5 (121D), and UMUC11 (12E).
A 10-day proliferation assay was performed in a panel of 5 MTAP-deficient and 2 wild type non-small cell lung and bladder cancer cell lines. Optimal cell seeding for all cell lines was determined by assessing the growth over a range of seeding densities in a 384-well format to identify conditions that permitted proliferation for 10 days. Cells were then plated at the optimal seeding density and treated with 20-point, two-fold dilution series of each of four structurally different SPLAMs in combination with a 1000 nM fixed concentration of Compound A. Single agent titrations for Compound A and each SPLAM were included for comparison. Concentrations tested for each SPLAM alone or in combination ranged from 0.04 nM to 20,000 nM. A plate of cells was harvested at the time of compound addition to quantify the number of cells at the start of the combination (T0). For cell quantification, the harvested cells were lysed with Promega CellTiter-Glo (CTG) reagent according to the manufacturer's protocol and the chemiluminescent signal was detected as described in Example 1 above. Cells were incubated with the drug combinations at 37° C. with 5% CO2 for 10 days. Cells were then lysed with CTG and the chemiluminescent signal was measured.
CTG values obtained after the 10-day treatment were background subtracted and expressed as a percent of the T0 value set at 100%. Data were plotted against compound concentration and fit with a four-parameter equation to generate single agent dose response curves. Percent inhibition was determined for each combination and single agent concentration compared to a DMSO control. In addition, the overall net growth or death of the cells was calculated and reported as a growth death index (GDI) value on a scale of −100 to 100 with the midpoint (0) being the number of cells at the beginning of the combination (T0).
Predicted inhibition was calculated using (Ea+Eb)−(Ea*Eb) where E equals the effect (inhibition) of each single agent (a and b). A difference between the observed inhibition percentage and the predicted inhibition percentage greater than 10% was considered synergistic. A Bliss score was only reported for combinations eliciting >20% growth inhibition (GDI value <80). Since Bliss is calculated based on growth inhibition, scores within cytotoxic dose ranges may not accurately reflect synergistic cytoxicity.
Synergy was measured across the E7820 titration with 1000 nM Compound A by Bliss Independence analysis. Bliss scores >10 are indicated by “*” and are considered synergistic. […] Synergy as reported using Bliss may be underrepresented within cytotoxic dose ranges. Growth death index values are shown for the combination titration and each single agent Compound A (Cmpd A) and Indisulam on a scale of −100 to 100 with the midpoint (0) being the number of cells at the beginning of the combination (T0). Scores less than 0 are indicated by “**” and are representative of a cytotoxic response. Bliss and GDI values are shown for five MTAP-deficient cell lines: NCI-1H838 (14A), SW900 (14B), RT112/84 (14C), UMUC5 (141)), and UMUC11 (14E).
Synergy was measured across the Chloroquinoxaline Sulfonamide titration with 1000 nM Compound A by Bliss Independence analysis.

IC50 (NCI-H520; NCI-H520, 240 h, 10 days) [nM] | IC90 (NCI-H520; 10 days) [nM] | SMILES | IC50 (UMUC11; 240 h, 10 days) [nM] | gIC30 (UMUC11; 10 days) [µM] | gIC40 (UMUC11; 10 days) [µM] | gIC60 (UMUC11; 10 days) [µM] | gIC70 (UMUC11; 10 days) [µM] | gIC100 (UMUC11; 10 days) [µM] | gIC30 (NCI-H520; 10 days) [µM] | gIC40 (NCI-H520; 10 days) [µM] | gIC60 (NCI-H520; 10 days) [µM] | gIC70 (NCI-H520; 10 days) [µM] | gIC100 (NCI-H520; 10 days) [µM] | IC80 (UMUC11; 10 days) [nM] | IC90 (UMUC11; 10 days) [nM] | IC80 (NCI-H520; 10 days) [nM] | GDI (SW900; SPLAM 0.04 nM) | GDI (SW900; SPLAM 0.1 nM) | GDI (SW900; SPLAM 0.2 nM) | GDI (SW900; SPLAM 0.3 nM) | also measured
20000 |  | Nc1nc(=O)n(-c2ccccc2Cl)c2nc(C(F)(F)F)ccc12 [Compound A] | 20000 | 20 | 20 | 20 | 20 | 20 | 20 | 20 | 20 | 20 | 20 |  |  |  |  |  |  |  | gIC30 (UMUC11): 20 µM; gIC40 (UMUC11): 20 µM; gIC60 (UMUC11): 20 µM; gIC70 (UMUC11): 20 µM; gIC100 (UMUC11): 20 µM; IC50 (UMUC11): 20000 nM; IC50 (NCI-H520; NCI-H520): 20000 nM; gIC30 (NCI-H520): 20 µM; gIC40 (NCI-H520): 20 µM; gIC60 (NCI-H520): 20 µM; gIC70 (NCI-H520): 20 µM; gIC100 (NCI-H520): 20 µM; GDI (growth death index), single agent Cmpd A (SW900; Table 16B): 100; GDI (growth death index), single agent Cmpd A (SW900; Table 18B): 100
734 | 12000 | Cc1ccc(NS(=O)(=O)c2cccc(C#N)c2)c2[nH]cc(C#N)c12 [Compound E7820, 3-cyano-N-(3-cyano-4-methyl-1H-indol-7-yl)benzenesulfonamide] | 452 | 0.361 | 0.404 | 0.511 | 0.589 | 20 | 0.484 | 0.596 | 0.92 | 1.214 | 20 | 713 | 1010 | 1840 | 97 | 100 | 99 | 100 | GDI (SW900; SPLAM 0.6 nM): 100; GDI (SW900; SPLAM 1.2 nM): 100; GDI (SW900; SPLAM 2.4 nM): 100; GDI (SW900; SPLAM 4.9 nM): 100; GDI (SW900; SPLAM 9.8 nM): 100; GDI (SW900; SPLAM 19.5 nM): 100; GDI (SW900; SPLAM 39.1 nM): 100; GDI (SW900; SPLAM 78.1 nM): 100; GDI (SW900; SPLAM 156.3 nM): 100; GDI (SW900; SPLAM 312.5 nM): 28; GDI (SW900; SPLAM 625 nM): −7**; GDI (SW900; SPLAM 1250 nM): −37**; GDI (SW900; SPLAM 2500 nM): −56**; GDI (SW900; SPLAM 5000 nM): −47**; GDI (SW900; SPLAM 10000 nM): −70**; GDI (SW900; SPLAM 20000 nM): −59**
633 | 2070 | NS(=O)(=O)c1ccc(S(=O)(=O)Nc2cccc3c(Cl)c[nH]c23)cc1 [Indisulam, N-(3-chloro-1H-indol-7-yl)benzene-1,4-disulfonamide] | 472 | 0.369 | 0.417 | 0.539 | 0.628 | 20 | 0.47 | 0.546 | 0.743 | 0.897 | 20 | 769 | 1110 | 1160 | 100 | 98 | 94 | 100 | GDI (SW900; SPLAM 0.6 nM): 100; GDI (SW900; SPLAM 1.2 nM): 100; GDI (SW900; SPLAM 2.4 nM): 100; GDI (SW900; SPLAM 4.9 nM): 100; GDI (SW900; SPLAM 9.8 nM): 100; GDI (SW900; SPLAM 19.5 nM): 100; GDI (SW900; SPLAM 39.1 nM): 100; GDI (SW900; SPLAM 78.1 nM): 100; GDI (SW900; SPLAM 156.3 nM): 100; GDI (SW900; SPLAM 312.5 nM): 34; GDI (SW900; SPLAM 625 nM): −3**; GDI (SW900; SPLAM 1250 nM): −33**; GDI (SW900; SPLAM 2500 nM): −61**; GDI (SW900; SPLAM 5000 nM): −56**; GDI (SW900; SPLAM 10000 nM): −58**; GDI (SW900; SPLAM 20000 nM): −60**
